Measurements taken from the supplement of paper PMC11061612.

How the values were obtained:
[1] = tested on: VAL (B-Cell Non-Hodgkin's Lymphoma); assay: Bliss excess, mean over the matrix (fraction); higher = more synergy
Summary of the method: (§1)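 Cell lines in DMEM/F12 or RPMI with 10% FBS were plated in 1536-well plates, held 24 hours at 37°C, 5% CO2, then given two-drug dose matrices for 72 hours (DMSO typically 0.2%). Viability was read by CellTiter-Glo 2.0 luminescence and scaled as inhibition from 0 (vehicle wells) to 1 (blank wells). Combination Emax is the second-highest inhibition in the matrix; Bliss excess is observed combination effect minus expected EA + EB − EA·EB, EA and EB being single-agent effects.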

[2] = tested on: CAL-120 (Breast Carcinoma); assay: as above
Summary of the method: as §1

[3] = tested on: OPM-2 (Plasma Cell Myeloma); assay: as above
Summary of the method: as §1

[4] = tested on: PANC-03-27 (Pancreatic Carcinoma); assay: combination Emax (second highest fraction inhibited in the dose matrix, 72 h); higher = more inhibition; extreme values may be limits of the assay
Summary of the method: as §1

SF268 (Low Grade Glioma) = assay: as above
Summary of the method: as §1

[5] = tested on: HEC-1 (Endometrial Carcinoma); assay: as above
Summary of the method: as §1

WM278 (Melanoma) = assay: as above
Summary of the method: as §1

SF539 (Glioblastoma) = assay: as above
Summary of the method: as §1

LN-229 (Glioblastoma) = assay: as above
Summary of the method: as §1

[6] = tested on: CAL-120 (Breast Carcinoma); assay: as above
Summary of the method: as §1

[7] = tested on: KE-37 (T-Lymphoblastic Leukemia); assay: as above
Summary of the method: as §1

[8] = tested on: REH (B-Lymphoblastic Leukemia); assay: as above
Summary of the method: as §1

[9] = tested on: RERF-LC-Sq1 (Squamous Cell Lung Carcinoma); assay: as above
Summary of the method: as §1

[10] = tested on: 23132-87 (Gastric Carcinoma); assay: as above
Summary of the method: as §1

[11] = tested on: LK-2 (Squamous Cell Lung Carcinoma); assay: as above
Summary of the method: as §1

[12] = tested on: NCI-H2342 (Lung Adenocarcinoma); assay: as above
Summary of the method: as §1

[13] = tested on: MFE-280 (Endometrial Carcinoma); assay: as above
Summary of the method: as §1

[14] = tested on: COLO-680N (Esophageal Squamous Cell Carcinoma); assay: as above
Summary of the method: as §1

[15] = tested on: SK-PN-DW (Other Solid Carcinomas); assay: as above
Summary of the method: as §1

IST-MES1 (Mesothelioma) = assay: as above
Summary of the method: as §1
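For Bliss excess, mean over the matrix in this document: after 72 h of two-drug dosing.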

| Structure (SMILES) | Bliss excess [1] | Bliss excess [2] | Bliss excess [3] | combination Emax [4] | combination Emax (SF268 (Low Grade Glioma)) | combination Emax [5] | combination Emax (WM278 (Melanoma)) | combination Emax (SF539 (Glioblastoma)) | combination Emax (LN-229 (Glioblastoma)) | combination Emax [6] | combination Emax [7] | combination Emax [8] | combination Emax [9] | combination Emax [10] | combination Emax [11] | combination Emax [12] | combination Emax [13] | combination Emax [14] | combination Emax [15] | combination Emax (IST-MES1 (Mesothelioma)) |
| --- | --- | --- | --- | --- | --- | --- | --- | --- | --- | --- | --- | --- | --- | --- | --- | --- | --- | --- | --- | --- |
| C[C@@H](c1ccc2nccn2c1)n1nnc2ncc(-c3cnn(C)c3)nc21 [Savolitinib] + CC1(C)CCC(CN2CCN(c3ccc(C(=O)NS(=O)(=O)c4ccc(NCC5CCOCC5)c([N+](=O)[O-])c4)c(Oc4cnc5[nH]ccc5c4)c3)CC2)=C(c2ccc(Cl)cc2)C1 [Venetoclax] (first compound max 1 µM, 7x7, partner max 1 µM) | -0.0305 | -0.0804 | 0.0324 | 0.167 | 0.104 | 0.133 | 0.102 | 0.161 | 0.0841 | 0.0877 | 0.113 | 0.608 | 0.167 | 0.147 | 0.165 | 0.188 | 0.186 | 0.211 | 0.221 | 0.198 |
| CC(=O)c1c(C)c2cnc(Nc3ccc(N4CCNCC4)cn3)nc2n(C2CCCC2)c1=O [Palbociclib] + CC1(C)CCC(CN2CCN(c3ccc(C(=O)NS(=O)(=O)c4ccc(NCC5CCOCC5)c([N+](=O)[O-])c4)c(Oc4cnc5[nH]ccc5c4)c3)CC2)=C(c2ccc(Cl)cc2)C1 [Venetoclax] (first compound max 10 µM, 7x7, partner max 1 µM) | -0.0109 | -0.0523 | 0.017 | 0.131 | 0.254 | 0.0102 | 0.185 | 0.262 | 0.0912 | 0.134 | 0.776 | 0.825 | 0.436 | 0.17 | 0.102 | 0.0497 | 0.0835 | 0.0584 | 0.257 | 0.253 |
| Cc1c2c(nn1C)CSCc1cc(n(C)n1)CSc1cc(c3ccccc3c1)OCCCc1c(C(=O)O)n(C)c3c-2c(Cl)ccc13 [AZD5991] + Cn1cnc2c(F)c(Nc3ccc(Br)cc3Cl)c(C(=O)NOCCO)cc21 [Selumetinib] (first compound max 1 µM, 7x7, partner max 3 µM) | -0.0227 | -0.0105 | 0.0231 | 0.597 | 0.269 | 0.143 | 0.648 | 0.427 | 0.428 | 0.167 | 0.947 | 0.732 | 0.479 | 0.903 | 0.203 | 0.341 | 0.278 | 0.236 | 0.887 | 0.257 |
| CS(=O)(=O)CCNCc1ccc(-c2ccc3ncnc(Nc4ccc(OCc5cccc(F)c5)c(Cl)c4)c3c2)o1 [Lapatinib] + C[C@@H](Oc1cc(-c2cnn(C3CCNCC3)c2)cnc1N)c1c(Cl)ccc(F)c1Cl [Crizotinib] (first compound max 10 µM, 7x7, partner max 10 µM) | -0.0531 | 0.0084 | -0.0611 | 0.835 | 0.902 | 0.182 | 0.768 | 0.937 | 0.334 | 0.734 | 0.975 | 0.964 | 0.949 | 0.594 | 0.888 | 0.43 | 0.88 | 0.483 | 0.938 | 0.686 |
| CC1(C)CCC(CN2CCN(c3ccc(C(=O)NS(=O)(=O)c4ccc(NCC5CCOCC5)c([N+](=O)[O-])c4)c(Oc4cnc5[nH]ccc5c4)c3)CC2)=C(c2ccc(Cl)cc2)C1 [Venetoclax] + COc1cc(Nc2ncc3c(n2)-c2ccc(Cl)cc2C(c2c(F)cccc2OC)=NC3)ccc1C(=O)O [Alisertib] (first compound max 1 µM, 7x7, partner max 10 µM) | 0.0174 | -0.0182 | 0.272 | 0.56 | 0.419 | 0.165 | 0.362 | 0.454 | 0.2 | 0.384 | 0.955 | 0.99 | 0.42 | 0 | 0.848 | 0.214 | 0.734 | 0.318 | 0.882 | 0.489 |
| CC1(C)CCC(CN2CCN(c3ccc(C(=O)NS(=O)(=O)c4ccc(NCC5CCOCC5)c([N+](=O)[O-])c4)c(Oc4cnc5[nH]ccc5c4)c3)CC2)=C(c2ccc(Cl)cc2)C1 [Venetoclax] + C[C@@H]1COCCN1C2=NC(=NC(=C2)C3(CC3)[S@](=N)(=O)C)C4=C5C=CNC5=NC=C4 [AZD6738] (first compound max 1 µM, 7x7, partner max 10 µM) | 0.004 | -0.0118 | -0.0462 | 0.781 | 0.64 | 0.41 | 0.623 | 0.87 | 0.582 | 0.384 | 1 | 0.996 | 0.675 | 0.433 | 0.494 | 0.265 | 0.423 | 0.278 | 0.929 | 0.396 |
| C[C@@H]1COCCN1c1cc(C2([S@](C)(=N)=O)CC2)nc(-c2ccnc3[nH]ccc23)n1 [AZD6738] + O=C(c1cc(Cc2n[nH]c(=O)c3ccccc23)ccc1F)N1CCN(C(=O)C2CC2)CC1 [Olaparib] (first compound max 10 µM, 7x7, partner max 10 µM) | -0.0708 | 0.0364 | -0.0339 | 0.829 | 0.407 | 0.143 | 0.233 | 0.935 | 0.539 | 0.386 | 1 | 0.917 | 0.75 | 0.768 | 0.485 | 0.208 | 0.403 | 0.392 | 0.947 | 0.353 |
| CCc1c2c(nc3ccc(O)cc13)-c1cc3c(c(=O)n1C2)COC(=O)[C@]3(O)CC [SN-38] + CN(C)CCCOc1ccc(-c2ccc3ncc4c(c3c2)n(C2CCOCC2)c(=O)n4C)cn1 [AZD0156] (first compound max 0.3 µM, 7x7, partner max 1 µM) | 0 | -0.0792 | 0.0104 | 0.773 | 0.902 | 0.398 | 0.635 | 0.895 | 0.283 | 0.381 | 1 | 1 | 0.743 | 0.845 | 0.584 | 0.225 | 0.611 | 0.412 | 0.92 | 0.875 |
| CC1(C)CCC(CN2CCN(c3ccc(C(=O)NS(=O)(=O)c4ccc(NCC5CCOCC5)c([N+](=O)[O-])c4)c(Oc4cnc5[nH]ccc5c4)c3)CC2)=C(c2ccc(Cl)cc2)C1 [Venetoclax] + CN(C)CCCOc1ccc(-c2ccc3ncc4c(c3c2)n(C2CCOCC2)c(=O)n4C)cn1 [AZD0156] (first compound max 1 µM, 7x7, partner max 1 µM) | 0.0308 | -0.0307 | 0.0271 | 0.684 | 0.298 | 0.163 | 0.211 | 0.292 | 0.212 | 0.167 | 0.196 | 0.908 | 0.229 | 0.157 | 0.321 | 0.203 | 0.423 | 0.173 | 0.825 | 0.0799 |
| Cn1cnc2c(F)c(Nc3ccc(Br)cc3Cl)c(C(=O)NOCCO)cc21 [Selumetinib] + CCN(CCO)CCCOc1ccc2c(Nc3cc(CC(=O)Nc4cccc(F)c4)[nH]n3)ncnc2c1 [AZD2811] (first compound max 10 µM, 7x7, partner max 1 µM) | -0.0614 | -0.0065 | 0.0243 | 0.534 | 0.275 | 0.0639 | 0.581 | 0.501 | 0.286 | 0.188 | 1 | 0.604 | 0.535 | 0.104 | 0.795 | 0.365 | 0.161 | 0.188 | 0.572 | 0.269 |
| COc1cc2c(cc1OCCCCCOc1cc3c(cc1OC)C(=O)N1C=C(C)C[C@H]1C=N3)N=C[C@@H]1CC(C)=CN1C2=O [SG3199] + O=C(c1cc(Cc2n[nH]c(=O)c3ccccc23)ccc1F)N1CCN(C(=O)C2CC2)CC1 [Olaparib] (first compound max 0.001 µM, 7x7, partner max 10 µM) | -0.0069 | -0.0329 | -0.047 | 0.0754 | 0.115 | 0.176 | 0.0771 | 0.268 | 0.0777 | 0.142 | 0.348 | 0.197 | 0.129 | 0.3 | 0.28 | 0.0836 | 0.184 | 0.0893 | 0.393 | 0.218 |
| CN(CCO)CC[C@H](CSc1ccccc1)Nc1ccc(S(=O)(=O)NC(=O)c2ccc(N3CCC([C@@H](O)c4ccccc4-c4ccc(Cl)cc4)CC3)cc2)cc1S(=O)(=O)C(F)(F)F [AZD4320] + C[C@@H]1COCCN1C2=NC(=NC(=C2)C3(CC3)[S@](=N)(=O)C)C4=C5C=CNC5=NC=C4 [AZD6738] (first compound max 1 µM, 7x7, partner max 10 µM) | 0.0095 | -0.0313 | -0.0534 | 0.926 | 0.78 | 0.613 | 0.789 | 0.959 | 0.797 | 0.757 | 1 | 1 | 0.791 | 0.84 | 0.769 | 0.377 | 0.88 | 0.346 | 0.947 | 0.296 |
